According to patent publication US10689398B2, “OXA-Diazaspiro compounds having activity against pain” (ESTEVE PHARMACEUTICALS, S.A., priority 2015, dated 2020):
pKi: −log10 of the molar value.

Biological target: human σ1 receptor (Homo sapiens (Human), UniProt Q99720)
Experiment: Human σ1 receptor radioligand assay
Format: binding
Conditions: transfected HEK-293 membranes, [3H](+)-pentazocine radioligand
Protocol: Human σ1 Receptor Radioligand Assay
To investigate binding properties of test compounds to human σ1 receptor, transfected HEK-293 membranes and [^3H](+)-pentazocine (Perkin Elmer, NET-1056), as the radioligand, were used. The assay was carried out with 7 μg of membrane suspension, 5 nM of [^3H](+)-pentazocine in either absence or presence of either buffer or 10 μM Haloperidol for total and non-specific binding, respectively. Binding buffer contained Tris-HCl 50 mM at pH 8. Plates were incubated at 37° C. for 120 minutes. After the incubation period, the reaction mix was then transferred to MultiScreen HTS, FC plates (Millipore), filtered and plates were washed 3 times with ice-cold 10 mM Tris-HCL (pH7.4). Filters were dried and counted at approximately 40% efficiency in a MicroBeta scintillation counter (Perkin-Elmer) using EcoScint liquid scintillation cocktail

human σ1 receptor, sequence (Q99720 whole entry): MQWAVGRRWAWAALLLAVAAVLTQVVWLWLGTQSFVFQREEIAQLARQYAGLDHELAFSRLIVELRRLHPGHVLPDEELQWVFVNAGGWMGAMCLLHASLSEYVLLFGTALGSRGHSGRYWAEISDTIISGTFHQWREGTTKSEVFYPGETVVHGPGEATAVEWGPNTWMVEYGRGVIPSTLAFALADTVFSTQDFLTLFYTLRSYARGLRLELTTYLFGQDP

SMILES | pKi
c1ccc(CCN2CCCC3(CC2)CN(c2ccccc2)CC2(CC2)O3)cc1 (stereo not drawn) [Example 22, 8-phenethyl-13-phenyl-4-oxa-8,13-diazadispiro[2.1.6.3]tetradecane] | > 7.00
c1ccc(CN2CCCC3(C2)CN(c2ccccc2)CC2(CC2)O3)cc1 (stereo not drawn) [Example 23, 7-benzyl-12-phenyl-4-oxa-7,12-diazadispiro[2.1.5.3]tridecane] | > 6.30
O=C(c1ccccc1)N1CC2(CC2)OC2(CCCN(CCc3ccccc3)C2)C1 (stereo not drawn) [Example 24, (7-phenethyl-4-oxa-7,12-diazadispiro[2.1.5.3]tridecan-12-yl)(phenyl)methanone] | ≤ 6.30
CC(C)CCN1CCCC2(C1)CN(C(=O)c1ccccc1)CC1(CC1)O2 (stereo not drawn) [Example 25, (7-isopentyl-4-oxa-7,12-diazadispiro[2.1.5.3]tridecan-12-yl)(phenyl)methanone] | > 6.30
CC(C)CN1CCCC2(C1)CN(C(=O)c1ccccc1)CC1(CC1)O2 (stereo not drawn) [Example 26, (7-isobutyl-4-oxa-7,12-diazadispiro[2.1.5.3]tridecan-12-yl)(phenyl)methanone] | ≤ 6.30
O=C(c1ccccc1)N1CC2(CCCN(CCc3ccccc3)CC2)OC2(CC2)C1 (stereo not drawn) [Example 27, (8-phenethyl-4-oxa-8,13-diazadispiro[2.1.6.3]tetradecan-13-yl)(phenyl)methanone] | > 7.00
CC(C)CCN1CCCC2(CC1)CN(C(=O)c1ccccc1)CC1(CC1)O2 (stereo not drawn) [Example 28, (8-isopentyl-4-oxa-8,13-diazadispiro[2.1.6.3]tetradecan-13-yl)(phenyl)methanone] | > 7.00
CC(C)CN1CCCC2(CC1)CN(C(=O)c1ccccc1)CC1(CC1)O2 (stereo not drawn) [Example 29, (8-isobutyl-4-oxa-8,13-diazadispiro[2.1.6.3]tetradecan-13-yl)(phenyl)methanone] | > 6.30
CCN1CC2(CCCN(CCc3ccccc3)CC2)OC(C)(C)C1=O (stereo not drawn) [Example 30, 4-ethyl-2,2-dimethyl-9-phenethyl-1-oxa-4,9-diazaspiro[5.6]dodecan-3-one] | > 7.00
CCN1CC2(CCCN(CCC(C)C)CC2)OC(C)(C)C1=O (stereo not drawn) [Example 31, 4-ethyl-9-isopentyl-2,2-dimethyl-1-oxa-4,9-diazaspiro[5.6]dodecan-3-one] | > 6.30
CCN1CC2(CCCN(CC(C)C)CC2)OC(C)(C)C1=O (stereo not drawn) [Example 32, 4-ethyl-9-isobutyl-2,2-dimethyl-1-oxa-4,9-diazaspiro[5.6]dodecan-3-one] | > 6.30
O=C1N(Cc2ccccc2)CC2(CN(CCc3ccccc3)C2)OC12CC2 [Example 33, 10-benzyl-7-phenethyl-4-oxa-7,10-diazadispiro[2.1.3.3]undecan-11-one] | > 7.00
CC1(C)CN(C(=O)c2ccccc2)CC2(CCCN(CCc3ccccc3)CC2)O1 (stereo not drawn) [Example 34, (2,2-dimethyl-9-phenethyl-1-oxa-4,9-diazaspiro[5.6]dodecan-4-yl)(phenyl)methanone] | > 7.00
CCN1CC2(CN(CCOC(C)C)C2)OC2(CC2)C1=O [Example 35, 10-ethyl-7-(2-isopropoxyethyl)-4-oxa-7,10-diazadispiro[2.1.3.3]undecan-11-one] | ≤ 6.30
CCN1CC2(CN(CCC(C)C)C2)O[C@H](C)C1=O [Example 36, (R)-8-ethyl-2-isopentyl-6-methyl-5-oxa-2,8-diazaspiro[3.5]nonan-7-one] | ≤ 6.30
CCN1CC2(CN(CCC(C)C)C2)O[C@@H](C)C1=O [Example 37, (S)-8-ethyl-2-isopentyl-6-methyl-5-oxa-2,8-diazaspiro[3.5]nonan-7-one] | ≤ 6.30
CCN1CC2(CN(CC(C)C)C2)O[C@H](C)C1=O [Example 38, (R)-8-ethyl-2-isobutyl-6-methyl-5-oxa-2,8-diazaspiro[3.5]nonan-7-one] | ≤ 6.30
CCN1CC2(CN(CC(C)C)C2)O[C@@H](C)C1=O [Example 39, (S)-8-ethyl-2-isobutyl-6-methyl-5-oxa-2,8-diazaspiro[3.5]nonan-7-one] | ≤ 6.30
